{
  "source": "patent US20140038950A1",
  "about": "“PLANT TREATMENT” (priority 2012, published 2014)",
  "key": {"[1]": {"test": "Direct trunk injection, phytotoxicity", "assay_type": "in vivo", "conditions": "movement into xylem vessels", "excerpt": "For direct trunk injections, the azoxystrobin fungicide is compatible with the physiology of the plants. […] Other formulations such as fluoxastrobin are not advised for direct trunk injections."}, "[2]": {"system": "common dogwood diseases", "test": "Drench experiments on flowering dogwoods", "assay_type": "in vivo", "conditions": "soil drench; compared with fluoxastrobin (personal experience)", "excerpt": "Evidence of how far you have to stray from my preferred formulation and application plan before the invention stops being useful (in other words, what are the boundaries of this invention). Not all strobilurins have xylem mobility only azoxystrobin and fluoxastrobin show this ability."}},
  "data": [
    {"compound": "CO/C=C(/C(=O)OC)c1ccccc1Oc1cc(Oc2ccccc2C#N)ncn1", "note": "[azoxystrobin]", "values": [
      {"measurement": "phytotoxicity", "setting": "[1]", "result": "without phytotoxicity"},
      {"measurement": "control of common dogwood diseases", "setting": "[2]", "result": "excellent season long control"}
    ]}
  ]
}
